Data published in patent US10485235B2, “Aryloxypyrimidinyl ethers as herbicides” (FMC Corporation, priority 2015, dated 2019).

Assays:
Format in all cases: in vivo
[1] = system: barnyardgrass (Echinochloa crus-galli); assay: Test B flooded paddy test, barnyardgrass; settings: 250 g ai/ha, Flood; visual rating after 13 to 15 days; scale 0 to 100, 0 is no effect, 100 is complete control
In short: (§1)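 Seedlings at the 2-leaf stage are flooded to 3 cm and treated via the paddy water. Greenhouse plants are compared with controls after 13 to 15 days and given a 0 (no effect) to 100 (complete control) rating.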

[2] = system: pigweed (Amaranthus retroflexus); assay: Test A preemergence, pigweed; settings: Preemergence, 0 to 100 scale (0 no effect, 100 complete control)
In short: (§2)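 Injury was assessed visually about ten days after application, relative to untreated plants, with 0 meaning no effect and 100 complete control. Treatments were soil-directed sprays after sowing (pre) or sprays on seedlings at one to two leaves (post), in loam soil/sand.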

[3] = system: foxtail, giant (giant foxtail, Setaria faberii); assay: Test A postemergence, giant foxtail
In short: as §2

[4] = system: ryegrass, Italian (Italian ryegrass, Lolium multiflorum); assay: Test A preemergence, Italian ryegrass; settings: Preemergence, 0 to 100 scale (0 no effect, 100 complete control)
In short: as §2

[5] = system: foxtail, giant (giant foxtail, Setaria faberii); assay: Test A preemergence, giant foxtail; settings: Preemergence, 0 to 100 scale (0 no effect, 100 complete control)
In short: as §2

[6] = system: rice (Oryza sativa); assay: Test B flooded paddy test, rice; settings: 250 g ai/ha, Flood; visual rating after 13 to 15 days; scale 0 to 100, 0 is no effect, 100 is complete control
In short: as §1

[7] = system: galium (catchweed bedstraw, Galium aparine); assay: Test A postemergence, galium
In short: as §2

[8] = system: pigweed (Amaranthus retroflexus); assay: Test A postemergence, pigweed
In short: as §2

[9] = system: ragweed (common ragweed, Ambrosia elatior); assay: Test A postemergence, ragweed
In short: as §2

[10] = system: kochia (Kochia scoparia); assay: Test A preemergence, kochia; settings: Preemergence, 0 to 100 scale (0 no effect, 100 complete control)
In short: as §2

[11] = system: sedge, umbrella (small-flower umbrella sedge, Cyperus difformis); assay: Test B flooded paddy test, umbrella sedge; settings: 250 g ai/ha, Flood; visual rating after 13 to 15 days; scale 0 to 100, 0 is no effect, 100 is complete control
In short: as §1

[12] = system: ducksalad (Heteranthera limosa); assay: Test B flooded paddy test, ducksalad; settings: 250 g ai/ha, Flood; visual rating after 13 to 15 days; scale 0 to 100, 0 is no effect, 100 is complete control
In short: as §1

[13] = system: barnyardgrass (Echinochloa crus-galli); assay: Test A preemergence, barnyardgrass; settings: Preemergence, 0 to 100 scale (0 no effect, 100 complete control)
In short: as §2

[14] = system: ryegrass, Italian (Italian ryegrass, Lolium multiflorum); assay: Test A postemergence, Italian ryegrass
In short: as §2

[15] = system: barnyardgrass (Echinochloa crus-galli); assay: Test A postemergence, barnyardgrass
In short: as §2

[16] = system: wheat (Triticum aestivum); assay: Test A postemergence, wheat
In short: as §2

[17] = system: corn (Zea mays); assay: Test A postemergence, corn
In short: as §2

[18] = system: blackgrass (Alopecurus myosuroides); assay: Test A postemergence, blackgrass
In short: as §2

[19] = system: ragweed (common ragweed, Ambrosia elatior); assay: Test A preemergence, ragweed; settings: Preemergence, 0 to 100 scale (0 no effect, 100 complete control)
In short: as §2

[20] = system: kochia (Kochia scoparia); assay: Test A postemergence, kochia
In short: as §2

[21] = 125 g ai/ha, postemergence, 0 to 100 scale, 0 is no effect, 100 is complete control, approximately 10 days
[22] = Postemergence, 31 g ai/ha, 0 to 100 scale (0 no effect, 100 complete control)
[23] = 500 g ai/ha, postemergence, 0 to 100 scale, 0 is no effect, 100 is complete control, approximately 10 days
[24] = 31 g ai/ha, postemergence, 0 to 100 scale, 0 is no effect, 100 is complete control, approximately 10 days

Structure (SMILES): Cl/C=C/COc1c(I)cccc1Oc1ncc(Cl)cn1 [Compound 68]
- Plant response rating, Barnyardgrass [1]: 40
- Plant response rating, Pigweed ([2]; 31 g ai/ha): 0
- Plant response rating, Pigweed ([2]; 125 g ai/ha): 100
- Plant response rating, Foxtail, Giant [3, 21]: 80
- Plant response rating, Foxtail, Giant [3, 22]: 30
- Plant response rating, Ryegrass, Italian ([4]; 31 g ai/ha): 0
- Plant response rating, Ryegrass, Italian ([4]; 125 g ai/ha): 20
- Plant response rating, Foxtail, Giant ([5]; 31 g ai/ha): 70
- Plant response rating, Foxtail, Giant ([5]; 125 g ai/ha): 100
- Plant response rating, Rice [6]: 10
- Plant response rating, Galium [7, 21]: 60
- Plant response rating, Galium [7, 22]: 50
- Plant response rating, Pigweed [8, 21]: 100
- Plant response rating, Pigweed [8, 22]: 80
- Plant response rating, Ragweed [9, 21]: 20
- Plant response rating, Ragweed [9, 22]: 0
- Plant response rating, Kochia ([10]; 31 g ai/ha): 0
- Plant response rating, Kochia ([10]; 125 g ai/ha): 30
- Plant response rating, Sedge, Umbrella [11]: 100
- Plant response rating, Ducksalad [12]: 100
- Plant response rating, Barnyardgrass ([13]; 31 g ai/ha): 70
- Plant response rating, Barnyardgrass ([13]; 125 g ai/ha): 70
- Plant response rating, Ryegrass, Italian [14, 21]: 30
- Plant response rating, Ryegrass, Italian [14, 22]: 0
- Plant response rating, Barnyardgrass [15, 21]: 100
- Plant response rating, Barnyardgrass [15, 22]: 60
- Plant response rating, Wheat [16, 21]: 0
- Plant response rating, Wheat [16, 22]: 0
- Plant response rating, Corn [17, 21]: 30
- Plant response rating, Corn [17, 22]: 20
- Plant response rating, Blackgrass [18, 21]: 60
- Plant response rating, Blackgrass [18, 22]: 20
- Plant response rating, Ragweed ([19]; 31 g ai/ha): 0
- Plant response rating, Ragweed ([19]; 125 g ai/ha): 0
- Plant response rating, Kochia [20, 21]: 100
- Plant response rating, Kochia [20, 22]: 90

Structure (SMILES): Fc1cccc(Oc2ncc(Cl)cn2)c1OC/C=C/C(F)(F)F [Compound 25]
- Plant response rating, Barnyardgrass [1]: 0
- Plant response rating, Pigweed ([2]; 125 g ai/ha): 100
- Plant response rating, Pigweed ([2]; 500 g ai/ha): 100
- Plant response rating, Foxtail, Giant [3, 21]: 30
- Plant response rating, Foxtail, Giant [3, 23]: 80
- Plant response rating, Ryegrass, Italian ([4]; 125 g ai/ha): 60
- Plant response rating, Ryegrass, Italian ([4]; 500 g ai/ha): 100
- Plant response rating, Foxtail, Giant ([5]; 125 g ai/ha): 100
- Plant response rating, Foxtail, Giant ([5]; 500 g ai/ha): 100
- Plant response rating, Rice [6]: 0
- Plant response rating, Galium [7, 21]: 50
- Plant response rating, Galium [7, 23]: 100
- Plant response rating, Pigweed [8, 21]: 50
- Plant response rating, Pigweed [8, 23]: 70
- Plant response rating, Ragweed [9, 21]: 0
- Plant response rating, Ragweed [9, 23]: 0
- Plant response rating, Kochia ([10]; 125 g ai/ha): 30
- Plant response rating, Kochia ([10]; 500 g ai/ha): 100
- Plant response rating, Sedge, Umbrella [11]: 75
- Plant response rating, Ducksalad [12]: 100
- Plant response rating, Barnyardgrass ([13]; 125 g ai/ha): 90
- Plant response rating, Barnyardgrass ([13]; 500 g ai/ha): 100
- Plant response rating, Ryegrass, Italian [14, 21]: 0
- Plant response rating, Ryegrass, Italian [14, 23]: 70
- Plant response rating, Barnyardgrass [15, 21]: 40
- Plant response rating, Barnyardgrass [15, 23]: 90
- Plant response rating, Wheat [16, 21]: 0
- Plant response rating, Wheat [16, 23]: 20
- Plant response rating, Corn [17, 21]: 10
- Plant response rating, Corn [17, 23]: 20
- Plant response rating, Blackgrass [18, 21]: 20
- Plant response rating, Blackgrass [18, 23]: 80
- Plant response rating, Ragweed ([19]; 125 g ai/ha): 0
- Plant response rating, Ragweed ([19]; 500 g ai/ha): 20
- Plant response rating, Kochia [20, 21]: 90
- Plant response rating, Kochia [20, 23]: 100

Structure (SMILES): FC(F)=C(F)CCOc1c(Br)cccc1Oc1ncc(Cl)cn1 [Compound 38]
- Plant response rating, Barnyardgrass [1]: 0
- Plant response rating, Pigweed ([2]; 31 g ai/ha): 0
- Plant response rating, Pigweed ([2]; 125 g ai/ha): 100
- Plant response rating, Foxtail, Giant [3, 24]: 10
- Plant response rating, Foxtail, Giant [3, 21]: 40
- Plant response rating, Ryegrass, Italian ([4]; 31 g ai/ha): 0
- Plant response rating, Ryegrass, Italian ([4]; 125 g ai/ha): 10
- Plant response rating, Foxtail, Giant ([5]; 31 g ai/ha): 30
- Plant response rating, Foxtail, Giant ([5]; 125 g ai/ha): 100
- Plant response rating, Rice [6]: 0
- Plant response rating, Galium [7, 24]: 10
- Plant response rating, Galium [7, 21]: 50
- Plant response rating, Pigweed [8, 24]: 40
- Plant response rating, Pigweed [8, 21]: 80
- Plant response rating, Ragweed [9, 24]: 0
- Plant response rating, Ragweed [9, 21]: 10
- Plant response rating, Kochia ([10]; 31 g ai/ha): 0
- Plant response rating, Kochia ([10]; 125 g ai/ha): 70
- Plant response rating, Sedge, Umbrella [11]: 100
- Plant response rating, Ducksalad [12]: 75
- Plant response rating, Barnyardgrass ([13]; 31 g ai/ha): 10
- Plant response rating, Barnyardgrass ([13]; 125 g ai/ha): 70
- Plant response rating, Ryegrass, Italian [14, 24]: 0
- Plant response rating, Ryegrass, Italian [14, 21]: 10
- Plant response rating, Barnyardgrass [15, 24]: 10
- Plant response rating, Barnyardgrass [15, 21]: 30
- Plant response rating, Wheat [16, 24]: 0
- Plant response rating, Wheat [16, 21]: 0
- Plant response rating, Corn [17, 24]: 10
- Plant response rating, Corn [17, 21]: 20
- Plant response rating, Blackgrass [18, 24]: 0
- Plant response rating, Blackgrass [18, 21]: 10
- Plant response rating, Ragweed ([19]; 31 g ai/ha): 0
- Plant response rating, Ragweed ([19]; 125 g ai/ha): 0
- Plant response rating, Kochia [20, 24]: 20
- Plant response rating, Kochia [20, 21]: 70

Structure (SMILES): FC(F)(F)/C=C/COc1c(I)cccc1Oc1ncc(Cl)cn1 [Compound 61]
- Plant response rating, Barnyardgrass [1]: 20
- Plant response rating, Pigweed ([2]; 31 g ai/ha): 0
- Plant response rating, Pigweed ([2]; 125 g ai/ha): 70
- Plant response rating, Foxtail, Giant [3, 24]: 0
- Plant response rating, Foxtail, Giant [3, 21]: 30
- Plant response rating, Ryegrass, Italian ([4]; 31 g ai/ha): 0
- Plant response rating, Ryegrass, Italian ([4]; 125 g ai/ha): 0
- Plant response rating, Foxtail, Giant ([5]; 31 g ai/ha): 0
- Plant response rating, Foxtail, Giant ([5]; 125 g ai/ha): 80
- Plant response rating, Rice [6]: 25
- Plant response rating, Galium [7, 24]: 20
- Plant response rating, Galium [7, 21]: 50
- Plant response rating, Pigweed [8, 24]: 80
- Plant response rating, Pigweed [8, 21]: 90
- Plant response rating, Ragweed [9, 24]: 0
- Plant response rating, Ragweed [9, 21]: 0
- Plant response rating, Kochia ([10]; 31 g ai/ha): 0
- Plant response rating, Kochia ([10]; 125 g ai/ha): 0
- Plant response rating, Sedge, Umbrella [11]: 95
- Plant response rating, Ducksalad [12]: 100
- Plant response rating, Barnyardgrass ([13]; 31 g ai/ha): 0
- Plant response rating, Barnyardgrass ([13]; 125 g ai/ha): 20
- Plant response rating, Ryegrass, Italian [14, 24]: 0
- Plant response rating, Ryegrass, Italian [14, 21]: 0
- Plant response rating, Barnyardgrass [15, 24]: 0
- Plant response rating, Barnyardgrass [15, 21]: 50
- Plant response rating, Wheat [16, 24]: 0
- Plant response rating, Wheat [16, 21]: 0
- Plant response rating, Corn [17, 24]: 10
- Plant response rating, Corn [17, 21]: 30
- Plant response rating, Blackgrass [18, 24]: 0
- Plant response rating, Blackgrass [18, 21]: 0
- Plant response rating, Ragweed ([19]; 31 g ai/ha): 0
- Plant response rating, Ragweed ([19]; 125 g ai/ha): 0
- Plant response rating, Kochia [20, 24]: 40
- Plant response rating, Kochia [20, 21]: 90
